Assay results: US5770688A, “Method and composition for the treatment of mammalian HIV infection” (GSF-Forschungszentrum fur Umwelt und Gesundheit GmbH, priority 1989, dated 1998)
“Also recorded” adds a separate entry of the source.

How the values were obtained:
[1] = system: HIV; experiment: relative infectious nature of culture supernatant, indirect immunoperoxidase staining of LC5 cells; format: cell-based
Description: Referring more particularly to FIGS. 1-4, melittin (Seq. ID NO:1) and its specified analogues were tested for their effect on HIV-infected T-lymphoma cells. In this regard the following cell lines were employed in the testing: KE37-1 (uninfected) and KE37-1/111S (infected with HTLV-111β). These infected cells were incubated for a period of seven days under test conditions at a temperature of 37° C. and in the presence of 5% CO2. A culture medium of RPMI 1640 (GIBCO) was employed and was further supplemented with 10% fetal calf serum which contained approximately 100 units of penicillin, 100μ of streptomycin, and approximately 0.25μ fungizone (Amphotericin B) per milliliter. […] A first test was conducted for purposes of determining the relative cell concentration as a function of the number of HIV infected cells present by employing an MTT test. The MTT test was carried out in microtiter plates according to T. Mosmann, "Rapid Colorimetric Assay for Cellular Growth and Survival: Application to Proliferation and Cytotoxicity Assays," Journal of Immunological Methods, v. 65 (1983), pp. 55-63. The MTT test was slightly modified: 10 μl of an MTT solution (5 mg/ml MTT dissolved in PBS, sterilized by filtration; MTT is 3-(4,5-Dimethylthiazole-2-yl)-2,5-diphenyltetrazolimbromide) were added to every well. […] The optical density (OD) of the solution was determined at=600 nm. […]

[2] = system: HIV; experiment: HIV release from chronically infected cells (Biomek 1000); format: cell-based; details: FIGS. 6-19
Excerpt: A series of experiments and which are illustrated graphically in FIGS. 6 through 34, respectively, were designed to detect two extremes. In particular the tests were designed to detect the inhibition of viral release and/or the release of virus which has a reduced ability to infect other cells. This reduced ability to infect other cells is represented, for example, by glycosylation inhibitors, the direct effect on virus release is represented by acylation inhibitors, RT inhibitors and melittin (Seq. ID NO:1). The most important feature of this experimental design, however, is to detect the toxicity of melittin. The present experiments were carried out on both the astrocytoma cell line LC5-HIV (cloned infected cells) and T-lymphocytoma cell line KE37-1/IIIβ (cloned infected cells with HTLV-IIIβ). In both cases the results were essentially identical.
In the present series of experiments HIV release was tested by a fully automated laboratory robot system and which is manufactured by Beckman Instruments as the Biomek 1000. This system performed the following steps. First, chronically infected cells (cloned) are plated in microtiter plates and grown for a period of seven days. They are then challenged by melittin (Seq. ID NO:1) during this period either for the final day or throughout the period as shown in the figures. The number of living cells are quantified by MTT, that is by a metabolic (dehydrogenase) test. The MTT test is automatically performed. The toxic effect is detected at the time of the experiment and not in a separate control experiment. Furthermore, the supernatant, and which contains released virus cells from the period of time which elapsed from the last wash, and which may vary from 24 hours to 7 days, is collected from the culture, and an aliquot is saved for virus quantification by employing antigen or viral enzyme reverse transcriptase (RT). Furthermore, an aliquot is added to a culture of uninfected cells in microtiter plates for subsequent measurement of the ability of the virus cells to reinfect these uninfected cells. In this regard, the number of infected cells is automatically quantified by an immunoperoxidase staining technique. The test results, as shown, are expressed in terms of toxicity of the melittin (MTT test); the release of HIV from the primary culture (RT test); and the ability of the released virus to infect previously uninfected cells.

Gly-Ile-Gly-Ala-Val-Leu-Lys-Val-Leu-Thr-Thr-Gly-Leu-Pro-Ala-Leu-Ile-Ser-Trp-Ile-Lys-Arg-Lys-Arg-Gln-Gln-Amide [melittin]
ability of the cells to infect (INF%) ([1]; 2.5 μg per ml, FIG. 2): revert substantially back to zero | supernatant infectivity ([1]; single treatment at cultivation start, subtoxic concentrations, seven days post treatment): supernatant infectivity was reduced | inhibition of viral cell (HIV) release from infected cells, in words [2]: inhibition of viral cell release from infected cells; also recorded: inhibited HIV release
